Literature values as cited in patent US9445901B2, “Prosthesis with sustained release analgesic” (priority 2003, dated 2016).
Counter-ions that a name gives are not always drawn.

Details: man, after injection for caudal, epidural or peripheral nerve block

time to peak levels of bupivacaine in the blood: 30 to 45 min
Compound: CCCCN1CCCCC1C(=O)Nc1c(C)cccc1C (centres unmarked) [Marcaine, bupivacaine hydrochloride]
decline of blood levels after the peak: decline to insignificant levels during the next three to six hours
